Results reported in ChEMBL document CHEMBL3217517, “Alkynylation of N-(3-iodopyridin-2-yl)sulfonamide under Pd/CCu catalysis: a direct one pot synthesis of 7-azaindoles and their pharmacological evaluation as potential inhibitors of sirtuins” (Medchemcomm, 2011).

Key:
[1] = target: NAD-dependent histone deacetylase SIR2 (Saccharomyces cerevisiae S288c, UniProt P06700); experiment: Inhibition of Ura3 gene expressing yeast NAD-dependent HDAC activity of Sir2 assessed as growth inhibition after 24 to 48 hrs by reporter silencing assay in absence of 5-fluoro orotic acid
Chain of NAD-dependent histone deacetylase SIR2 (P06700 whole entry): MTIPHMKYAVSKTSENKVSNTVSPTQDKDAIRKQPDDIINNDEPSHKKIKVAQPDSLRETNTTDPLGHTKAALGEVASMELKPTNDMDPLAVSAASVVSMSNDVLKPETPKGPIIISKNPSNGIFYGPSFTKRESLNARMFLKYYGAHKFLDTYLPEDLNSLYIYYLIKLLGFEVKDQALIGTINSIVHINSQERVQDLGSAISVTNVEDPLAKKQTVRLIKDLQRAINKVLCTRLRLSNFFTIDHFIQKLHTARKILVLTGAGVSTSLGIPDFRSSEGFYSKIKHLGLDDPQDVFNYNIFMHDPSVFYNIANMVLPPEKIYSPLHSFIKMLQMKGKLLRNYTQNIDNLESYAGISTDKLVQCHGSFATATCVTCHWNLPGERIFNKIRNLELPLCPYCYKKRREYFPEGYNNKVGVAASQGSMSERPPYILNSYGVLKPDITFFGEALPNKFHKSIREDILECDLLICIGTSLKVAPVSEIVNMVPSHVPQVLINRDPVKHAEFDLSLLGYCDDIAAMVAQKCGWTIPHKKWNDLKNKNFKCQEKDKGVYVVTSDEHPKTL

[2] = target: NAD-dependent histone deacetylase SIR2 (Saccharomyces cerevisiae S288c) (UniProt P06700); experiment: Inhibition of Ura3 gene expressing yeast NAD-dependent HDAC activity of Sir2 assessed as growth inhibition after 24 to 48 hrs by reporter silencing assay in presence of 5-fluoro orotic acid
Chain of NAD-dependent histone deacetylase SIR2 (Saccharomyces cerevisiae S288c) (P06700 whole entry): as above

[3] = target: NAD-dependent histone deacetylase SIR2 (Saccharomyces cerevisiae S288c) (UniProt P06700); experiment: Inhibition of Ura3 gene expressing yeast NAD-dependent HDAC activity of Sir2 assessed as growth inhibition at 50 uM after 24 to 48 hrs by reporter silencing assay in presence of 5-fluoro orotic acid

Compound	Activity [1]	inhibition [2]	inhibition [3]
CS(=O)(=O)n1c(-c2ccccc2)cc2cccnc21	Non-toxic	Dose-dependent effect	40%
CC(O)c1cc2cccnc2n1S(=O)(=O)c1ccccc1 (configuration not stated)			30%
CCCCCc1cc2cccnc2n1S(=O)(=O)c1ccccc1			10%
O=S(=O)(c1ccccc1)n1c(CCCCl)cc2cccnc21			12%
CC(C)(C)c1cc2cccnc2n1S(=O)(=O)c1ccccc1	Non-toxic		42%
O=S(=O)(c1ccccc1)n1c(CCO)cc2cccnc21			15%
O=S(=O)(c1ccccc1)n1c(-c2ccccc2)cc2cccnc21			37%
N#CCCCc1cc2cccnc2n1S(=O)(=O)c1ccccc1			10%
O=S(=O)(c1ccccc1)n1c(CO)cc2cccnc21	Non-toxic		
